Experimental data reported in US20110172147A1, “NEUROPEPTIDE-2 RECEPTOR (Y-2R) AGONISTS” (priority 2009, published 2011).

How the values were obtained:
Format in all cases: cell-based
[1] = molecular target: T1, Y5R (Homo sapiens, UniProt Q15761); assay: CaFlux Assay (FLIPR), Y5R
T1 sequence (Q15761 1-445): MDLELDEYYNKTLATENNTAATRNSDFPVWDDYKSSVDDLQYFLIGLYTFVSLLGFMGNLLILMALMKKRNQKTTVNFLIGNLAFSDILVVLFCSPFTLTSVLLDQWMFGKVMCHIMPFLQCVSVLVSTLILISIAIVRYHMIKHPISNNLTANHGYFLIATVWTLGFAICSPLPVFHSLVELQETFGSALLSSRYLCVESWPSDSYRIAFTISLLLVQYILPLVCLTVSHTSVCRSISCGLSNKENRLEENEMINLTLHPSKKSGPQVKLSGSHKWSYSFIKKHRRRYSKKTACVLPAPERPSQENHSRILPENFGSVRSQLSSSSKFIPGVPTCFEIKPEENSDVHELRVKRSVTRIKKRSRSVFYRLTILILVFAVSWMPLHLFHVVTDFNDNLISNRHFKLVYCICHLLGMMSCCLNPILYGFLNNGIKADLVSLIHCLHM

[2] = molecular target: T2, hNPY2R (Homo sapiens, UniProt P49146); assay: cAMP Agonist Assay, HEK293/hNPY2R; parameters: expressed in transfected cells; host or cells: HEK293/hNPY2R (G418 selection)
T2 sequence (P49146 1-381): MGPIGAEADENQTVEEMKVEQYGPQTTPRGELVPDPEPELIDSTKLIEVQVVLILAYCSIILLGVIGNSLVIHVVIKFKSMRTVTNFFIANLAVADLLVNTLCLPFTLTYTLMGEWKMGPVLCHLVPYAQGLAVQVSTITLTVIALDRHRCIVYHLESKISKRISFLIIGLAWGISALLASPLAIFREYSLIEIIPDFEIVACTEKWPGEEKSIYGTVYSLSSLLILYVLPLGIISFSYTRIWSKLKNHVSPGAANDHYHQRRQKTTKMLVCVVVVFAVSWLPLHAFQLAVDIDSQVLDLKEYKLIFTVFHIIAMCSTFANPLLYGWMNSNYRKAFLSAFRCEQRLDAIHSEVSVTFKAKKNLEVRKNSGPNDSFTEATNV
Procedure, shortened: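 Intracellular cAMP quantified by luminescent competitive ELISA after a 30 min room-temperature treatment of overnight-plated HEK293/hNPY2R cells with compound in medium containing 5 μM forskolin, 0.5 mM IBMX and 1.1% DMSO; four replicates per concentration.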

[3] = molecular target: T3, Y1R (Homo sapiens, UniProt P25929); assay: CaFlux Assay (FLIPR), Y1R
T3 sequence (P25929 1-384): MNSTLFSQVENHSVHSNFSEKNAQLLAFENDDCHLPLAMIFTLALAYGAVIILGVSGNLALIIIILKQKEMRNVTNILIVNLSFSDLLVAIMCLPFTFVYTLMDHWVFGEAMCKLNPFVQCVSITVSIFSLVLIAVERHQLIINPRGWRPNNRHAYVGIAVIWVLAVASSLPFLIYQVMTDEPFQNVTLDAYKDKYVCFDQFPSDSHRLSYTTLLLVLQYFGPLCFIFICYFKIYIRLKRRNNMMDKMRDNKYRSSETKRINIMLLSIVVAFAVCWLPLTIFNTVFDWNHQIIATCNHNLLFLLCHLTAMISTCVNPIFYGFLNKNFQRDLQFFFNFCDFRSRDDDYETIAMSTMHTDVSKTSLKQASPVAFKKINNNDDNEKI

[4] = molecular target: T2, hNPY2R; assay: CaFlux Assay (FLIPR), Y2R; parameters: expressed in transfected cells; host or cells: HEK-293 stably transfected with G protein chimera Gαqi9
Procedure, shortened: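 Gαqi9-chimera HEK-293 stable lines; Calcium-3 dye load 1 h, 37 °C (HBSS, 20 mM HEPES, 5 mM probenecid); compound in HBSS/0.05% BSA/1% DMSO; FLIPR read every 1.5 s for 100 s; peak minus pre-addition baseline, % of max positive-control response.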

[5] = molecular target: Y4R (Homo sapiens, UniProt P50391); assay: CaFlux Assay (FLIPR), Y4R
Sequence of Y4R (P50391 whole entry): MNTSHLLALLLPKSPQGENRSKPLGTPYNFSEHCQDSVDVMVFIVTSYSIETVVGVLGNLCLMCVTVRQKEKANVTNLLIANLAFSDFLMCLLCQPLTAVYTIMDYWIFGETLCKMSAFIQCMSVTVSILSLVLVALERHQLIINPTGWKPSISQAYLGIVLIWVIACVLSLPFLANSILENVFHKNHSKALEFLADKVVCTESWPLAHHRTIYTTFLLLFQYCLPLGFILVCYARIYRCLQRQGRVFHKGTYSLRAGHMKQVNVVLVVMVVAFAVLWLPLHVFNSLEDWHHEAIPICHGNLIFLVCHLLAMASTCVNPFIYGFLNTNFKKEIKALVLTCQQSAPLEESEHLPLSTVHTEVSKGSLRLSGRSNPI

Compound | EC50 [1] | EC50 [2] | EC50 [3] | EC50 [4] | EC50 [5] | Y5R FLIPR agonist character (partial agonist mark) ([1]; FLIPR)
CCCCCCCCCCCCCCCCCCCC(=O)N[C@@H](CCC(=O)O)C(=O)N[C@@H](CCC(=O)O)C(=O)N[C@H](C(=O)N[C@@H](CCCCNC(=O)CCOCCOCCOCCOCCOCCOCCOCCOCCOCCOCCOCCOCCOCCOCCOCCOC)C(=O)N1CCN(c2ccc3ncn(CC(=O)N[C@@H](CCCNC(=N)N)C(=O)N[C@@H](Cc4c[nH]cn4)C(=O)N[C@@H](Cc4ccc(O)cc4)C(=O)N[C@@H](Cc4c[nH]cn4)C(=O)N[C@@H](CC(N)=O)C(=O)N[C@@H](Cc4c[nH]c5ccccc45)C(=O)N[C@H](C(=O)N[C@H](C(=O)N[C@@H](CCCNC(=N)N)C(=O)N[C@@H](CCC(N)=O)C(=O)N[C@@H](CCCNC(=N)N)C(=O)N[C@@H](Cc4ccc(O)cc4)C(N)=O)[C@@H](C)O)C(C)C)c(=O)c3c2)CC1)[C@@H](C)CC [Example 56] | 8.73 nM | 0.013 nM | > 6000 nM | 0.098 nM | > 6000 nM | –
CCCCCCCCCCCCCCCC(=O)NCCCCCC(=O)NCCCCCC(=O)N[C@@H](C(=O)N[C@@H](CCCCNC(=O)CCOCCOCCOCCOCCOCCOCCOCCOCCOCCOCCOCCOCCOCCOCCOCCOCCOCCOCCOCCOCCOCCOCCOCCOC)C(=O)N1CCN(c2ccc3ncn(CC(=O)N[C@@H](CCCNC(=N)N)C(=O)N[C@@H](Cc4c[nH]cn4)C(=O)N[C@@H](Cc4ccc(O)cc4)C(=O)N[C@@H](CC(C)C)C(=O)N[C@@H](CC(N)=O)C(=O)N[C@@H](Cc4c[nH]c5ccccc45)C(=O)N[C@H](C(=O)N[C@H](C(=O)N[C@@H](CCCNC(=N)N)C(=O)N[C@@H](CCC(N)=O)C(=O)N(C)[C@@H](CCCNC(=N)N)C(=O)N[C@@H](Cc4ccc(O)cc4)C(N)=O)[C@@H](C)O)C(C)C)c(=O)c3c2)CC1)[C@@H](C)CC [Example 43] | 316 nM | 0.1 nM | > 6000 nM | 0.1 nM | > 6000 nM | –
CCCCCCCCCCCCCCCCCCCC(=O)N[C@@H](CCC(=O)O)C(=O)N[C@@H](CCC(=O)O)C(=O)N[C@H](C(=O)N[C@@H](CCCCNC(=O)CCOCCOCCOCCOCCOCCOCCOCCOCCOCCOCCOCCOCCOCCOCCOCCOCCOCCOCCOCCOCCOCCOCCOCCOC)C(=O)N1CCN(c2ccc3ncn(CC(=O)N[C@@H](CCCNC(N)=O)C(=O)N[C@@H](Cc4c[nH]cn4)C(=O)N[C@@H](Cc4ccc(O)cc4)C(=O)N[C@@H](CC(C)C)C(=O)N[C@@H](CC(N)=O)C(=O)N[C@@H](Cc4c[nH]c5ccccc45)C(=O)N[C@H](C(=O)N[C@H](C(=O)N[C@@H](CCCNC(=N)N)C(=O)N[C@@H](CCC(N)=O)C(=O)N(C)[C@@H](CCCNC(=N)N)C(=O)N[C@@H](Cc4ccc(O)cc4)C(N)=O)[C@@H](C)O)C(C)C)c(=O)c3c2)CC1)[C@@H](C)CC [Example 49] | 518 nM | 0.25 nM | > 9000 nM | 0.098 nM | > 9000 nM | P.A
CCCCCCCCCCCCCCCCCCCC(=O)N[C@@H](CCC(=O)O)C(=O)N[C@@H](CCC(=O)O)C(=O)N[C@H](C(=O)N[C@@H](CCCCNC(=O)CCOCCOCCOCCOCCOCCOCCOCCOCCOCCOCCOCCOCCOCCOCCOCCOC)C(=O)N1CCN(c2ccc3ncn(CC(=O)N[C@@H](CCCNC(N)=O)C(=O)N[C@@H](Cc4c[nH]cn4)C(=O)N[C@@H](Cc4ccc(O)cc4)C(=O)N[C@@H](CC(C)C)C(=O)N[C@@H](CC(N)=O)C(=O)N[C@@H](Cc4c[nH]c5ccccc45)C(=O)N[C@H](C(=O)N[C@H](C(=O)N[C@@H](CCCNC(=N)N)C(=O)N[C@@H](CCC(N)=O)C(=O)N(C)[C@@H](CCCNC(=N)N)C(=O)N[C@@H](Cc4ccc(O)cc4)C(N)=O)[C@@H](C)O)C(C)C)c(=O)c3c2)CC1)[C@@H](C)CC [Example 47] | > 6000 nM | 0.23 nM | > 6000 nM | 0.158 nM | > 6000 nM | –
CCCCCCCCCCCCCCCC(=O)NCCCCCC(=O)NCCCCCC(=O)N[C@H](C(=O)N[C@@H](CCCCNC(=O)CCOCCOCCOCCOCCOCCOCCOCCOCCOCCOCCOCCOCCOCCOCCOCCOCCOCCOCCOCCOCCOCCOCCOCCOC)C(=O)N1CCN(c2ccc3ncn(CC(=O)N[C@@H](CCCNC(=N)N)C(=O)N[C@@H](Cc4c[nH]cn4)C(=O)N[C@@H](Cc4ccc(O)cc4)C(=O)N[C@@H](CC(C)C)C(=O)N[C@@H](CC(N)=O)C(=O)N[C@@H](Cc4c[nH]c5ccccc45)C(=O)N[C@H](C(=O)N[C@H](C(=O)N[C@@H](CCCNC(=N)N)C(=O)N[C@@H](CCC(N)=O)C(=O)N(C)[C@@H](CCCNC(=N)N)C(=O)N[C@@H](Cc4ccc(O)cc4)C(N)=O)[C@@H](C)O)C(C)C)c(=O)c3c2)CC1)[C@@H](C)CC [Example 42] | 815 nM | 0.13 nM | > 6000 nM | 0.069 nM | > 6000 nM | –
CCCCCCCCCCCCCCCC(=O)NCCCCCC(=O)NCCCC[C@H](NC(=O)[C@@H](NC(=O)CCOCCOCCOCCOCCOCCOCCOCCOCCOCCOCCOCCOCCOCCOCCOCCOC)[C@@H](C)CC)C(=O)N1CCN(c2ccc3ncn(CC(=O)N[C@@H](CCCNC(=N)N)C(=O)N[C@@H](Cc4c[nH]cn4)C(=O)N[C@@H](Cc4ccc(O)cc4)C(=O)N[C@@H](CC(C)C)C(=O)N[C@@H](CC(N)=O)C(=O)N[C@@H](Cc4c[nH]c5ccccc45)C(=O)N[C@H](C(=O)N[C@H](C(=O)N[C@@H](CCCNC(=N)N)C(=O)N[C@@H](CCC(N)=O)C(=O)N(C)[C@@H](CCCNC(=N)N)C(=O)N[C@@H](Cc4ccc(O)cc4)C(N)=O)[C@@H](C)O)C(C)C)c(=O)c3c2)CC1 [Example 10] | 816 nM | 0.13 nM | > 5000 nM | 0.04 nM | > 5000 nM | –
CCCCCCCCCCCCCCCC(=O)NCCCCCC(=O)NCCCCCC(=O)N[C@H](C(=O)N[C@@H](CCCCNC(=O)CCOCCOCCOCCOCCOCCOCCOCCOCCOCCOCCOCCOC)C(=O)N1CCN(c2ccc3ncn(CC(=O)N[C@@H](CCCNC(=N)N)C(=O)N[C@@H](Cc4c[nH]cn4)C(=O)N[C@@H](Cc4ccc(O)cc4)C(=O)N[C@@H](CC(C)C)C(=O)N[C@@H](CC(N)=O)C(=O)N[C@@H](Cc4c[nH]c5ccccc45)C(=O)N[C@H](C(=O)N[C@H](C(=O)N[C@@H](CCCNC(=N)N)C(=O)N[C@@H](CCC(N)=O)C(=O)N(C)[C@@H](CCCNC(=N)N)C(=O)N[C@@H](Cc4ccc(O)cc4)C(N)=O)[C@@H](C)O)C(C)C)c(=O)c3c2)CC1)[C@@H](C)CC [Example 40] | 820 nM | 0.11 nM | > 6000 nM | 0.058 nM | > 6000 nM | –
CCCCCCCCCCCCCCCC(=O)NCCCCCC(=O)NCCCCCC(=O)N[C@H](C(=O)N[C@@H](CCCCNC(=O)CCOCCOCCOCCOCCOCCOCCOCCOCCOCCOCCOCCOCCOCCOCCOCCOC)C(=O)N1CCN(c2ccc3ncn(CC(=O)N[C@@H](CCCNC(=N)N)C(=O)N[C@@H](Cc4c[nH]cn4)C(=O)N[C@@H](Cc4ccc(O)cc4)C(=O)N[C@@H](CC(C)C)C(=O)N[C@@H](CC(N)=O)C(=O)N[C@@H](Cc4c[nH]c5ccccc45)C(=O)N[C@H](C(=O)N[C@H](C(=O)N[C@@H](CCCNC(=N)N)C(=O)N[C@@H](CCC(N)=O)C(=O)N(C)[C@@H](CCCNC(=N)N)C(=O)N[C@@H](Cc4ccc(O)cc4)C(N)=O)[C@@H](C)O)C(C)C)c(=O)c3c2)CC1)[C@@H](C)CC [Example 41] | 1320 nM | 0.17 nM | > 6000 nM | 0.04 nM | > 6000 nM | –
